Results from patent EP1412028B1, “TETRAHYDROINDOLONE DERIVATIVES LINKED TO ARYLPIPERAZINES” (Spectrum Pharmaceuticals, Inc., priority 2001, dated 2003).
Read-outs that look alike come from different tables or passages of the source.

How the values were obtained:
male C-57 mice = experiment: PCP disruption of pre-pulse inhibition (PPI) of the acoustic startle response; assay type: in vivo; settings: for ED50: Mus musculus; for PCP Disruption of Pre-pulse Inhibition, reversal: mice, PCP 5mg/kg IP, route not given, NEO compounds as oxalate
Protocol: The non-competitive NMDA receptor antagonist phencyclidine (PCP) reduces pre-pulse inhibition (PPI) of the acoustic startle response in rodents. […] For testing of PPI, male C-57 mice were assigned to five dose groups of eight animals per group, and vehicle or test compound were administered orally (PO) or subcutaneously (SC) 20 minutes prior to intraperitoneal (IP) administration of vehicle or PCP (5mg/kg). Ten minutes following PCP administration, the mice were placed into Hamilton-Kinder startle chambers and evaluation of pre-pulse inhibition procedure was performed. Following a five-minute acclimatization period with background white noise (65db), mice were exposed to five different trial types. Trials were presented […] in a quasi-random order, with randomized 5 to 25 second inter-trial intervals. Trials were: stimulus only trial (120db white noise, 50ms stimulus); two different prepulse+pulse trials in which a 20ms 5db; or 10db stimuli above a 65db background preceded the 120db pulse by 120ms; a 10dbprepulse without a 120db pulse; and a no stimulus trial, in which only the background noise was presented. Table 2 PCP Pre-pulse Inhibition

Caco-2 cells [1] = system: Caco-2 cells
Protocol: (§1) Caco-2 cells were used to evaluate the membrane permeability of eight embodiments of the present invention. Monolayers were grown to confluence and the integrity checked by transepithelial electrical resistance (TEER) and permeability of Lucifer Yellow. The expression of P-glycoprotein was confirmed by measuring the permeability of digoxin alone and in the presence of verapamil. Permeability measurements were taken for each compound in the apical to basolateral (AP-BL) direction, and the basolateral to apical (BL-AP) direction.

Caco-2 cells [2] = experiment: Membrane permeability (Papp) across Caco-2 cell monolayers; settings: for RATIO Papp^B-A/ Papp^A-B / Papp AP- to- BL / Papp BL- to- AP: Caco-2 monolayer; for Papp AP- to- BL: apical to basolateral direction; for Papp BL- to- AP: basolateral to apical direction
Protocol: as §1

mice = experiment: Conditioned avoidance responding (CAR, active avoidance); assay type: in vivo; settings: for ED50: Mus musculus
Protocol: Training: Consists of 20 trials with variable inter-trial intervals (Trained to 80% Avoidance Criteria). After a one-minute acclimation period, the house light and an acoustic 90dB tone (conditioned stimuli) are presented. A response (crossing to dark compartment) within 5 seconds ends the trial and trial is recorded as avoidance response (CAR). […] To avoid shock, animals learn to move from the lighted side of the chamber to the dark side when the cue is presented (avoidance) or moved when the shock is administered (escape).Testing: Vehicle or test compounds are administered S.C. 20 minutes before the test session. (Checking for disruption of cognition and attention) Table 3. Conditioned Avoidance Responding

[3] = sc, read-out: PCP Disruption of Pre-pulse Inhibition - SC, 5pp ED50
[4] = sc, read-out: PCP Disruption of Pre-pulse Inhibition - SC, 10pp ED50
[5] = read-out: PCP Disruption of Pre-pulse Inhibition, 10pp ED50
[6] = mice, SC 20 minutes before the test session, read-out: Conditioned Avoidance Responding, Latency ED50
[7] = mice, SC 20 minutes before the test session, read-out: Conditioned Avoidance Responding, avoidance ED50
[8] = mice, SC 20 minutes before the test session
[9] = sc, read-out: Conditioned Avoidance Responding, Latency ED50
[10] = sc, read-out: Conditioned Avoidance Responding, avoidance ED50

Compound	ED50 (male C-57 mice; [3]) [mg/kg]	ED50 (male C-57 mice; [4]) [mg/kg]	ED50 (male C-57 mice; [5]) [mg/kg]	EFFLUX LIMITED (Caco-2 cells [1])	PERMEABILITY (Caco-2 cells [1])	RATIO Papp^B-A/ Papp^A-B (Caco-2 cells [2])	Papp AP- to- BL (Caco-2 cells [2]) [cm/s x 10^6]	Papp BL- to- AP (Caco-2 cells [2]) [cm/s x 10^6]	ED50 (mice; [6]) [mg/kg]	ED50 (mice; [7]) [mg/kg]	Conditioned Avoidance Responding, effect on avoidance (mice; [8])	Conditioned Avoidance Responding, effect on latency (mice; [8])	Conditioned Avoidance Responding, effect on escape or avoidance (mice; [8])	Conditioned Avoidance Responding, overall effect (mice; [8])	ED50 (male C-57 mice; read-out: PCP Disruption of Pre-pulse Inhibition, 5pp ED50) [mg/kg]	Papp AP- to- BL (Caco-2 cells [1]; human) [cm/s x 10^6]	PCP Disruption of Pre-pulse Inhibition, reversal (male C-57 mice)	EFFLUX LIMITED (Caco-2 cells [2]; Caco-2, Yes/No judgement)	ED50 (mice; [9]) [mg/kg]	ED50 (mice; [10]) [mg/kg]
O=C1CCCc2c1ccn2CCCCN1CCN(c2cccc(C(F)(F)F)c2)CC1 [NEO-392, 1-{4-[4-(3-Trifluoromethylphenyl)piperazin-1-yl]-butyl}-1,5,6,7-tetrahydroindol-4-one]	0.23	0.23	1.12	No	High	0.58	27.1±1.1	15.7±1.3	3.25	4.93	Significant reduction in avoidance	Significant increase in latency								
O=C1CCCc2c1ccn2CCN1CCN(c2cccc(Cl)c2)CC1 [NEO-376, 1-{2-[4-(3-Chloro-phenyl)-piperazin-1-yl]-ethyl}-1,5,6,7-tetrahydro-indol-4-one]	0.79	0.79	0.79	No	High	0.43	20.4±1.8	9.4±0.3	17.5			significant increase in latency	No effect on escape or avoidance							
O=C1CCCc2c1ccn2CCCN1CCN(c2cccc(Cl)c2)CC1 [NEO-363, 1-{3-[4-(3-Chlorophenyl)piperazine-1-yl]propyl}-1,5,6,7-tetrahydroindol-4-one]	2.3	2.3	3.1	No	High	0.75	18.0±0.7	13.1±1.1						No effect						
COc1ccccc1N1CCN(CCCn2ccc3c2CCCC3=O)CC1 [NEO-370, 1-{3-[4-(2-Methoxyphenyl)piperazine-1-yl]propyl}-1,5,6,7-tetrahydroindol-4-one]	0.79	0.79	0.96	No	High	0.67	32.1±8.1	20.0±3.4	3.25	6.2	Significant reduction in avoidance	Significant increase in latency			0.96					
CC(C)NCC(O)COc1cccc2ccccc12 (stereo not drawn) [Propranolol, reference compound]				No	High											17.3±2.3				
COc1ccccc1N1CCN(CCn2ccc3c2CCCC3=O)CC1 [NEO-377, 1-{2-[4-(2-Methoxyphenyl)-piperazin-1-yl]-ethyl}-1,5,6,7-tetrahydro-indol-4-one]	2.31	1.12	2.3	No	High	0.60	26.0±1.8	15.5±2.9	3	7.57	Significant reduction in avoidance	Significant increase in latency								
O=C1CCCc2c1ccn2CCCN1CCN(c2cccc(C(F)(F)F)c2)CC1 [NEO-356, 1-{3-[4-(3-Trifluoromethylphenyl)piperazin-1-yl]propyl}-1,5,6,7-tetrahydroindol-4-one]	2.31			No	High	0.41	21.5±2.9	8.8±0.3						No effect			No reversal			
O=C1CCCc2c1ccn2CCCN1CCN(c2ncccn2)CC1 [NEO-381, 1-{3-[4-(2-Pyrimidyl)piperazine-1-yl]propyl}-1,5,6,7-tetrahydroindol-4-one]	0.79	3.58		No	High	0.77	32.9±9.6	25.3±0.7						No effect			No reversal			
CN1CCN(C2=Nc3cc(Cl)ccc3Nc3ccccc32)CC1 [Clozapine, clozapine, reference compound]	2.87	3				0.65	15.3±0.7	7.4±1.1										No	3.03	6.3
Cc1nc2n(c(=O)c1CCN1CCC(c3noc4cc(F)ccc34)CC1)CCCC2 [Risperidone, risperidone, reference compound]	0.036	0.036									Significant reduction in avoidance	Significant increase in latency							0.26	0.19
O=C1CCCc2c1ccn2CCN1CCN(c2cccc(C(F)(F)F)c2)CC1 [NEO-359, 1-{2-[4-(3-Trifluoromethylphenyl)piperazine-1-yl]ethyl}-1,5,6,7-tetrahydroindol-4-one]	3.58	0.79		No	High	0.32	24.0±3.9	7.6±0.5	100			Significant decrease in latency	No effect on escape or avoidance				No reversal			
